Measurements taken from patent US20060040909A1, “Selenophene compounds” (DEVELOPMENT CENTER FOR BIOTECHNOLOGY, priority 2004, published 2006).

Test system: Hep-3B liver cancer cells
Experiment: In vivo assay, Hep-3B cells transplanted subcutaneously into athymic mice
Conditions: intraperitoneally, once every two days, 14th day, vs control group
Procedure: Compound 3 was tested for its efficacy against Hep-3B liver cancer cells implanted in mice of two treated groups at a […] dosage of 50 mg/kg and 75 mg/kg. In a control group, mice bearing Hep-3B liver cancer cells were not treated with any test compound. Male athymic mice (Ncr nu/nu) of 4-6 weeks of age and weighing 20-25 g were used. Mice were housed in cages in ventilated cabinets and provided sterilized pellet diet and sterile water ad libitum. The temperature was kept between 23-25° C. and a humidity of about 50±10%. Light of the housing area was on a 12-hour light/dark cycle. All experimentation was performed under the IACUC guidelines adopted by the Development Center for Biotechnology, Taiwan. Hep-3B cells were transplanted subcutaneously into athymic mice. In the treated groups, when the tumor reached a volume of about 50 mm^3, mice were treated with compound 3 at a dosage of 50 mg/kg or 75 mg/kg once every two days for three times. The treated groups and the control group each had 7 mice. Compound 3 was administered intraperitoneally. The sizes of tumors were measured using a caliper at least twice a week and the tumor volume (TV) was calculated. Body weights were also monitored along with tumor volume measurement. The percentage of tumor growth was determined by dividing the mean TV of the treated group by the mean TV of a control group.

Cn1c(-c2ccc(CO)[se]2)cc(CO)c1-c1ccc(CO)[se]1 [Compound 3]
mean TV (tumor volume) reduced (three doses of 50 mg/kg): 37% | mean TV (tumor volume) reduced (three doses of 75 mg/kg): 63%
